# Assays:
# Type in all cases: cell-based, murine
# COX-2 = COX-2 assay (cell membrane damage by RDT); conditions: CT26, 10 μM 4 h; for COX-2 mean fluorescence intensities (flow cytometry): with X-ray irradiation
# Protocol: Thus, the cell membrane damage caused by RDT upon X-ray irradiation was investigated by COX-2 assay (BD Bioscience, Franklin Lakes, New Jersey, United States of America) in CT26 cells. Cells were seeded on cover slides in 6-well plates and cultured for 12 h then incubated with Hf12-DBP, Hf12-DBP-Pt, H2DBP-Pt or PBS at a Hf concentration of 10 μM or ligand with concentration of 10 μM for 4 h followed by X-ray irradiation (250 kVp, 15 mA, mm Cu filter) at 0 and 2 Gy dose. Cells were fixed with 4% paraformaldehyde immediately after X-ray or light irradiation. Biotin-conjugated anti-COX-2 antibody with concentration of 10 μg/mL were incubated with cells at 4° C. overnight then followed by incubation with Cy3-conjugated streptavidin. The nuclei were stained with DAPI. […] The cells were imaged with CLSM and quantified by flow cytometry.
# To further study the stronger RDT effect from the Hf12-DBP-Pt treated group, flow cytometry was performed to quantify the difference of COX-2 upregulation of cells treated with Hf12-DBP-Pt, Hf12-DBP, H2DBP-Pt or H2DBP. The mean fluorescence intensities were 7441, 1804, 821, and 225 for the t cells treated with Hf12-DBP-Pt, Hf12-DBP, H2DBP-Pt and H2DBP with X-ray irradiation, respectively.
# MC38 cells = experiment: Annexin V/dead cell apoptosis kit, flow cytometry, MC38; conditions: 48 h
# Protocol: (§1) The in vitro anticancer efficacy of Hf12-DBP and Hf12-DBP-Pt were further evaluated on CT26 and MC38 cells. Cells were cultured in a 6-well plate overnight and incubated with particles at a Hf concentration of 20 μM for 4 h followed by irradiation with 0 or 2 Gy X-ray (250 kVp, 15 mA, 1 mm Cu filter). 48 h later, the cells were stained according to the AlexaFluor 488 Annexin V/dead cell apoptosis kit (Life Technologies, Carlsbad, California United States of America) and quantified by flow cytometry.
# as §1, with “POM, Hf6-QPDC-Ir, Hf12-QPDC-Ir” for “Hf12-DBP”, “POM@Hf12-QPDC-Ir” for “Hf12-DBP-Pt”, “were” for “were further”, “μM or equivalent W concentration” for “μM”, “California,” for “California”, “cytometry. […]” for “cytometry.”
# CT26 cells [1] = experiment: Annexin V/dead cell apoptosis kit, flow cytometry, CT26; conditions: 48 h
# Protocol: as §1
# as §1, with “POM, Hf6-QPDC-Ir, Hf12-QPDC-Ir” for “Hf12-DBP”, “POM@Hf12-QPDC-Ir” for “Hf12-DBP-Pt”, “were” for “were further”, “μM or equivalent W concentration” for “μM”, “California,” for “California”
# CT26 cells [2] = experiment: Intracellular singlet oxygen generation (SOSG, CLSM), Example 1; conditions: 20 μM based on Ir, Ru or BPY, 8 h, X-ray 2 Gy
# Protocol: ^1O2 generation in live cells was detected by Singlet Oxygen Sensor Green (SOSG, Life Technology, USA). CT26 cells were seeded in a 3.5-cm petri dish and cultured for 12 h. The culture medium was then replaced with fresh medium containing 1 μM SOSG to preload the cells with SOSG. After incubating for 30 min, the cells were washed by PBS three times to remove excess SOSG. The cells were incubated in PBS, with Hf-MOLs or ligands at a ligand concentration of 20 μM for 8 h, then washed with PBS three times to remove excess MOLs or ligands. X-ray irradiation was applied to cells at a dose of 2 Gy (250 kVp, 15 mA, 1-mm Cu filter). Confocal laser scanning microscopy (CLSM; FV1000 Laser Scanning Confocal Microscope, Olympus Corporation, Tokyo, Japan) was used to visualize the ^1O2 generated in the live cells by detecting the green fluorescence inside the cells.
# The mechanism of X-ray induced cytotoxicity on CT26 cells was explored. ^1O2 generation in live cells was examined by Singlet Oxygen Sensor Green (SOSG) and detected by confocal laser scanning microscopy (CLSM). After preloading cells with SOSG and incubating them with PBS, Hf-MOLs, or H3BPY ligand for 8 h at a concentration of 20 μM based on Ir, Ru, or BPY, respectively, they were irradiated with X-rays at a dose of 2 Gy, immediately followed by CLSM imaging.
# [3] = Table 9, 0 Gy (dark), Hf 20 μM 4 h
# [4] = Table 9, 2 Gy X-ray, Hf 20 μM 4 h
# [5] = Table 8, 0 Gy (dark), Hf 20 μM 4 h
# [6] = Table 8, 2 Gy X-ray, Hf 20 μM 4 h
# [7] = Table 11, 0 Gy (dark), Hf 20 μM or equivalent W 4 h
# [8] = Table 11, 2 Gy X-ray, Hf 20 μM or equivalent W 4 h
# [9] = Table 10, 0 Gy (dark), Hf 20 μM or equivalent W 4 h
# [10] = Table 10, 2 Gy X-ray, Hf 20 μM or equivalent W 4 h
compound,measurement,setting,value
"O=C(O)c1ccc(-c2c3nc(cc4ccc([nH]4)c(-c4ccc(C(=O)O)cc4)c4nc(cc5ccc2[nH]5)C=C4)C=C3)cc1 [H2DBP, 5,15-di(p-benzoato)porphyrin]",COX-2 mean fluorescence intensities (flow cytometry),COX-2,225
"O=C(O)c1ccc(-c2c3nc(cc4ccc([n-]4)c(-c4ccc(C(=O)O)cc4)c4nc(cc5ccc2[n-]5)C=C4)C=C3)cc1.[Pt+2] [H2DBP-Pt, platinum-complexed 5, 15-di(p-benzoato)porphyrin]",Early apoptosis,MC38 cells; [3],3.99%
same,Healthy cells,MC38 cells; [3],93.9%
same,Late apoptosis,MC38 cells; [3],1.90%
same,Necrosis,MC38 cells; [3],3.18%
same,Early apoptosis,MC38 cells; [4],15.9%
same,Healthy cells,MC38 cells; [4],78.2%
same,Late apoptosis,MC38 cells; [4],5.31%
same,Necrosis,MC38 cells; [4],0.55%
same,Early apoptosis,CT26 cells [1]; [5],0.66%
same,Healthy cells,CT26 cells [1]; [5],88.2%
same,Late apoptosis,CT26 cells [1]; [5],4.86%
same,Necrosis,CT26 cells [1]; [5],6.26%
same,Early apoptosis,CT26 cells [1]; [6],0.73%
same,Healthy cells,CT26 cells [1]; [6],69.3%
same,Late apoptosis,CT26 cells [1]; [6],8.45%
same,Necrosis,CT26 cells [1]; [6],21.5%
same,COX-2 mean fluorescence intensities (flow cytometry),COX-2,821
same,COX-2 upregulation by CLSM,COX-2; with X-ray irradiation (2 Gy),No fluorescence signal
same,COX-2 upregulation by CLSM,COX-2; without X-ray irradiation,No fluorescence signal
"[P2W18O62]^6− [POM, reference compound]",Early apoptosis,MC38 cells; [7],0.44%
same,Healthy cells,MC38 cells; [7],97.3%
same,Late apoptosis,MC38 cells; [7],0.86%
same,Necrosis,MC38 cells; [7],1.53%
same,Early apoptosis,MC38 cells; [8],2.35%
same,Healthy cells,MC38 cells; [8],70.9%
same,Late apoptosis,MC38 cells; [8],14.0%
same,Necrosis,MC38 cells; [8],12.7%
same,Early apoptosis,CT26 cells [1]; [9],0.051%
same,Healthy cells,CT26 cells [1]; [9],99.7%
same,Late apoptosis,CT26 cells [1]; [9],0.0057%
same,Necrosis,CT26 cells [1]; [9],0.21%
same,Early apoptosis,CT26 cells [1]; [10],5.71%
same,Healthy cells,CT26 cells [1]; [10],83.1%
same,Late apoptosis,CT26 cells [1]; [10],8.14%
same,Necrosis,CT26 cells [1]; [10],3.05%
"O=C(O)c1ccc(-c2cc(-c3ccc(C(=O)O)cc3)nc(-c3cc(C(=O)O)ccn3)c2)cc1 [H3BPY, 4′,6′-dibenzoato-[2,2′-bipyridine]-4-carboxylic acid]",SOSG fluorescence (^1O2 in live cells),CT26 cells [2],no SOSG signal
